A short description of the series: Solubility of MGB phosphoramidites in acetonitrile (oligonucleotide synthesis solvent). In kind it is physicochemical. To be noted: standard solvent for on-line oligosynthesis. How it is done: Activated pentafluorophenyl ester 1 of the DPI3 type of minor groove bindinding ligands was prepared as previously described (U.S. Pat. No. 7,381,818) and coupled with four secondary amine-containing terminal functions generatin trimers 2(a-d), (Reaction Scheme 1, FIG. 1) suitable for following protection and phosphoramidite preparation. The use of secondary amino function prevents the possibility of the formation of acyclic side-product (Basel and Hassner 2000) during the following protection step. The trimers 2(a-d) were reacted with diethyl pyrocarbonate in the presence of DMAP to protect the three heteroaromatic indolamino groups and afford carbomates 3(a-d). Methyl and tert-butyl dicarbonates were also tested and produced the respective carbamates with good yields. […] Therefore, the ethylcarbamate protection was concluded to be optimal allowing fast deprotection and providing the required solubility in acetonitrile. […]
Test octathymidylates were synthesized on an ABI 3900 DNA synthesizer using thymidine-5′- or 3′-phosphoramidites and a DMT-O-hexylsuccinate solid support. […] Crude reaction mixtures were concentrated in a SpeedVac evaporator and analyzed by mass spectroscopy to confirm molecular weight and determine purity of crude MGB-oligonucleotide conjugates. […]

`CCOC(=O)n1c(-c2ccc(OCCCCCCOP(OCCC#N)N(C(C)C)C(C)C)cc2)nc2cc(-c3nc4cc(-c5nc6cc(N7CCN(C)CC7)ccc6n5C(=O)OCC)ccc4n3C(=O)OCC)ccc21` (stereo not shown) [Phosphoramidite 25]: the solubility in acetonitrile entry is “only sparingly soluble”.

These data come from patent US9056887B2, “Minor groove binder phosphoramidites and methods of use” (Elitech Holding B.V., priority 2011, dated 2015).
